The record followed here is patent US20050118276A1, “Coated metal pyrithione particles for treatment of microorganisms” (Arch Chemicals, Inc., priority 2003, published 2005).

The test system of the test is Malassezia furfur. In words: comparative corneofungimetry bioassay on human stratum corneum strippings. The format is cell-based. To be noted: for Median positive fungal cells# from 20 samples: 9 days at 27° C., neutral red vital stain, counted by mm^2.
The mark [1] stands for this setting: 1% zinc pyrithione water suspension.
Where [2] appears, read: formulated shampoo containing 1% zinc pyrithione.

Procedure: As a more advanced test, “corneofungimetry” was used to evaluate the particles prepared in accordance with the Example and Comparative Examples. This test is a good pre-clinical screening method because it requires growing the Malassezia furfur sp on a substrate that is more representative of its natural environment. Cyanoacrylate is used to harvest a layer of skin, and these skin surface strippings are treated with olive oil to simulate sebum. The prepared skin samples are then treated with the actives under investigation, inoculated with the microorganism of interest and incubated.
The corneofungimetry bioassay was performed on normal stratum corneum harvested from 20 healthy volunteers using cyanoacrylate adhesive. Samples were dipped into olive oil and stored in a sterile environment for 3 days.
Malassezia furfur was cultured on MLNA (Modified Leeming and Notman Agar) medium. Suspensions of fungal cells were prepared in physiologic saline (10^4-10^5 cells/ml). Aliquots of 250 μl of these suspensions were deposited onto the stratum corneum samples and incubated under moist conditions at 27° C. for 9 days. Samples were then stained using neutral red as a vital stain identifying living fungi growing on the human stratum corneum. The number of positive fungal cells was counted by mm^2 using computerized image analysis (Analysis Olympus). The medians and ranges were determined. Between-product comparisons were performed using the paired non-parametric Friedman test followed by the Dunn test.

As to zinc pyrithione [Uncoated], under setting [1], the “% killing compared to saline control” value came to 44% and the “Median positive fungal cells# from 20 samples” value was 451. Further, under setting [2], the “% killing compared to saline control” value was determined as 52% and the “Median positive fungal cells# from 20 samples” value was 363.
